Assay results reported in patent US20120196899A1, “METHODS AND PRODUCTS FOR TREATING INFLAMMATION” (Rock Creek Pharmaceuticals, Inc., priority 2010, published 2012).
Values joined by “and” are separate entries in the source; they are usually repeats but may differ in a detail not shown here. Equal entries are not always repeated. Where two headings read alike, the source gives them in different places.

Experiment: Plasma pharmacokinetics after oral multi-dose anatabine polacrilex
Format: in vivo, Sprague-Dawley rats
Conditions: for Cp,max(1): after dose 1, mean; for Cp,max(3): after dose 3, mean; for Cp,max(2): after dose 2, mean; for AUC(0-inf) / concentration at 270 min / concentration at 300 min / concentration at 475 min / concentration at 540 min / concentration at 600 min / concentration at 720 min / concentration at 30 min / concentration at 60 min / concentration at 235 min / half-life: Sprague-Dawley, rat, plasma; for AUC(0-inf) / half-life: po; for concentration at 270 min / concentration at 300 min / concentration at 475 min / concentration at 540 min / concentration at 600 min / concentration at 720 min / concentration at 30 min / concentration at 60 min / concentration at 235 min: oral, Avg. Conc. of anatabine in plasma, Male and Female
Description: This study consisted of two groups of 8 animals each, 4 males and 4 females.
Two formulations were prepared; one for each of the two treatment groups. The test compound was formulated for each treatment group just prior to the first dose administration and constantly stirred until dosing was completed (Table 37). Four aliquots of each dose level formulation were collected and stored at −80° C.
The animals were weighed prior to dosing and received three doses p.o. of test compound at a volume of 5 mL/kg. Blood was collected via the venus plexus (retro-orbital) into tubes containing (K2) EDTA. No more than 0.5 mL was collected per time point.
Plasma was separated as per package instructions for MICROTAINER® brand collection tubes (3 minutes, 2000×g). Plasma was decanted into microfuge tubes and stored at −80° C. Remaining test compound was placed at −80° C.
Sample preparation. Plasma samples were treated with three volumes of methanol containing internal standard at 1 μM (R,S)-Antabine-2,4,5,6-d4), incubated 10 min at 4° C., and centrifuged. The amount of the test agent in the supernatant was determined by LC/MS/MS.
Analysis. Samples were analyzed by LC/MS/MS using an Agilent 6410 mass spectrometer coupled with an Agilent 1200 high pressure liquid chromatography (HPLC) and a CTC PAL chilled autosampler, all controlled by MassHunter software (Agilent). After separation on a Hydrophilic interaction liquid chromatography (HILIC) HPLC column (Sepax) using an acetonitrile-ammonium acetate/acetic acid gradient system, peaks were analyzed by mass spectrometry (MS) using ESI ionization in multiple reaction monitoring (MRM) mode. MassHunter software was used to calculate the concentration of the test compounds in samples from the peak area using the appropriate calibration curves.
Calibration samples. Calibration curves were determined in rat plasma. Calibration samples were prepared by diluting a 50× stock solution of the test compound in PBS with blank matrix to the appropriate concentration and these samples were prepared as described above in the sample preparation.
Data Analysis. Descriptive statistics were calculated for all pharmacokinetic parameters. Elimination half-lives (t1/2) were calculated by linear regression of logarithmically transformed plasma concentration data for each period between doses and following the final dose.
Total areas under the plasma concentration curves (AUC) and under the first moment curves (AUMC) were calculated using linear trapezoidal summation across all concentration time points as well as for intervals between each dose administration and following the final dose. […] Mean absorption times (MAT) were calculated according to the following relation: […]
where MRT represents the mean residence time. This was calculated from the mean residence times.
The statistical comparison of parameters between male and female animals was made using a two-tailed, unpaired, t-test with a 95 percent confidence interval. Repeated-measures analysis of variance (ANOVA) was used for multiple comparisons of Cp, max involving successive determinations on the same group of animals.

[1] = 0.6 mg/kg, male and female combined, mean
[2] = 6.0 mg/kg, male and female combined, mean
[3] = all data combined (overall), mean
[4] = both dose levels and genders combined, anatabine polacrilex p.o.
[5] = both treatment groups combined, female rats, mean
[6] = both treatment groups combined, male rats, mean

## C1=CCC(c2cccnc2)NC1 (racemic) [Anatabine, 1,2,3,6-tetrahydro-[2,3′]bipyridinyl]
0.6 mg/kg BW group, first value of male versus female comparison
  Cp,min(2): 15.3 ± 5.5 ng/mL
0.6 mg/kg BW group, second value of male versus female comparison
  Cp,min(2): 7.5 ± 1.7 ng/mL
0.6 mg/kg, female rats
  Cp,max(1): 38.3 ng/mL
0.6 mg/kg, female rats, mean
  Cp,min(1): 10.3 ng/mL
  Cp,min(2): 7.5 ng/mL
  MAT0→4 (mean absorption time): 0.53 h
  MTT0→4 (mean transit time): 2.98 h
  AUC(0-inf): 290 ng·h/mL
[1]
  AUC0→∞: 285 ng·h/mL
  MAT0→4: 0.61 h
  MTT0→4: 3.06 h
0.6 mg/kg, male rats
  Cp,max(1): 34.3 ng/mL
  Cp,max(3): 37.3 ng/mL
0.6 mg/kg, male rats, mean
  Cp,min(1): 11.0 ng/mL
  Cp,min(2): 15.3 ng/mL
  MAT0→4 (mean absorption time): 0.71 h
  MTT0→4 (mean transit time): 3.17 h
  AUC(0-inf): 280 ng·h/mL
6.0 mg/kg BW group, first value of male versus female comparison
  Cp,min(2): 93 ± 16 ng/mL
6.0 mg/kg, female rats
  Cp,max(1): 260 ng/mL and 259.8 ng/mL
  Cp,max(2): 312 ng/mL and 312.0 ng/mL
  Cp,max(3): 375 ng/mL and 374.8 ng/mL
6.0 mg/kg, female rats, mean
  Cp,min(1): 52 ng/mL and 51.5 ng/mL
  Cp,min(2): 180 ng/mL and 180.0 ng/mL
  MAT0→4 (mean absorption time): 0.30 h
  MTT0→4 (mean transit time): 2.76 h
  AUC(0-inf): 3740 ng·h/mL
[2]
  AUC0→∞: 3496 ng·h/mL
  MAT0→4: 0.52 h
  MTT0→4: 2.97 h
6.0 mg/kg, male rats
  Cp,max(1): 287 ng/mL
  Cp,max(2): 305 ng/mL
6.0 mg/kg, male rats, mean
  Cp,min(1): 75 ng/mL
  Cp,min(2): 93 ng/mL
  MAT0→4 (mean absorption time): 0.73 h
  MTT0→4 (mean transit time): 3.18 h
  AUC(0-inf): 3260 ng·h/mL
[3]
  MAT0→4: 0.56 h
  MTT0→4: 3.01 h
[4]
  mean absorption time (MAT0→4): 0.56 ± 1.25 h
  mean transit time (MTT0→4): 3.01 ± 1.25 h
Both sexes, 0.2 mg/kg BW, dose group 0.2, combined male and female, 270 min
  concentration at 270 min: 26 ng/mL
Both sexes, 0.2 mg/kg BW, dose group 0.2, combined male and female, 300 min
  concentration at 300 min: 27 ng/mL
Both sexes, 0.2 mg/kg BW, dose group 0.2, combined male and female, 475 min
  concentration at 475 min: 11 ng/mL
Both sexes, 0.2 mg/kg BW, dose group 0.2, combined male and female, 540 min
  concentration at 540 min: 30 ng/mL
Both sexes, 0.2 mg/kg BW, dose group 0.2, combined male and female, 600 min
  concentration at 600 min: 26 ng/mL
Both sexes, 0.2 mg/kg BW, dose group 0.2, combined male and female, 720 min
  concentration at 720 min: 13 ng/mL
Both sexes, 0.2 mg/kg, dose group 0.2, combined male and female, 30 min
  concentration at 30 min: 36 ng/mL
Both sexes, 0.2 mg/kg, dose group 0.2, combined male and female, 60 min
  concentration at 60 min: 31 ng/mL
Both sexes, 0.2 mg/kg, dose group 0.2, combined male and female, 235 min
  concentration at 235 min: 10 ng/mL
Both sexes, 2 mg/kg BW, dose group 2, combined male and female, 30 min
  concentration at 30 min: 201 ng/mL
Both sexes, 2 mg/kg BW, dose group 2, combined male and female, 60 min
  concentration at 60 min: 139 ng/mL
Both sexes, 2 mg/kg BW, dose group 2, combined male and female, 235 min
  concentration at 235 min: 63 ng/mL
Both sexes, 2 mg/kg BW, dose group 2, combined male and female, 270 min
  concentration at 270 min: 278 ng/mL
Both sexes, 2 mg/kg BW, dose group 2, combined male and female, 300 min
  concentration at 300 min: 222 ng/mL
Both sexes, 2 mg/kg BW, dose group 2, combined male and female, 475 min
  concentration at 475 min: 136 ng/mL
Both sexes, 2 mg/kg BW, dose group 2, combined male and female, 540 min
  concentration at 540 min: 286 ng/mL
Both sexes, 2 mg/kg BW, dose group 2, combined male and female, 600 min
  concentration at 600 min: 237 ng/mL
Both sexes, 2 mg/kg BW, dose group 2, combined male and female, 720 min
  concentration at 720 min: 194 ng/mL
Both sexes, 0.6 mg/kg, 0.6 mg/kg BW total p.o., after final dose, males and females combined, read-out: t1/2, terminal (converted)
  half-life: 1.79 ± 0.64 h
Both sexes, 0.6 mg/kg, male and female combined, mean, read-out: t1/2,0→4 (converted)
  half-life: 2.05 h
Both sexes, 0.6 mg/kg, male and female combined, mean, read-out: t1/2,terminal (converted)
  half-life: 1.79 h
Both sexes, 6 mg/kg, 6.0 mg/kg BW total p.o., after final dose, males and females combined, read-out: t1/2, terminal (converted)
  half-life: 4.53 ± 1.77 h
Both sexes, 6 mg/kg, male and female combined, mean, read-out: t1/2,0→4 (converted)
  half-life: 1.79 h
Both sexes, 6 mg/kg, male and female combined, mean, read-out: t1/2,terminal (converted)
  half-life: 4.53 h
Both sexes, all data combined (overall), mean, read-out: t1/2,0→4 (converted)
  half-life: 1.93 h
Both sexes, both dose levels and genders combined, anatabine polacrilex p.o., read-out: elimination half-life following the first oral dose (t1/2, 0→4) (converted)
  half-life: 1.93 ± 0.73 h
Both sexes, 0.6 mg/kg BW total p.o., males and females combined
  AUC(0-inf): 285 ± 77 ng·h/mL
Both sexes, 6.0 mg/kg BW total p.o., males and females combined
  AUC(0-inf): 3500 ± 559 ng·h/mL
[5]
  MAT0→4: 0.42 h
  MTT0→4: 2.87 h
[6]
  MAT0→4: 0.72 h
  MTT0→4: 3.18 h
Dose 0.2 mg/kg, female, […], individual animals 2A-2D
  Anatabine Concentration in rat plasma: <LOQ
Dose 0.2 mg/kg, male, 30 min, individual animals 1A-1D
  Anatabine Concentration in rat plasma: <LOQ
Dose 0.2 mg/kg, male, 60 min, individual animals 1A-1D
  Anatabine Concentration in rat plasma: 34 ng/mL
Dose 0.2 mg/kg, male, 235 min, individual animals 1A-1D
  Anatabine Concentration in rat plasma: <LOQ and 13 ng/mL
Dose 0.2 mg/kg, male, 270 min, individual animals 1A-1D
  Anatabine Concentration in rat plasma: 31 ng/mL and 20 ng/mL
Dose 0.2 mg/kg, male, 300 min, individual animals 1A-1D
  Anatabine Concentration in rat plasma: 26 ng/mL and 29 ng/mL
Dose 0.2 mg/kg, male, 475 min, individual animals 1A-1D
  Anatabine Concentration in rat plasma: 9 ng/mL and <LOQ and 18 ng/mL
Dose 0.2 mg/kg, male, 540 min, individual animals 1A-1D
  Anatabine Concentration in rat plasma: 4 ng/mL and 28 ng/mL and 41 ng/mL
Dose 0.2 mg/kg, male, 600 min, individual animals 1A-1D
  Anatabine Concentration in rat plasma: <LOQ and 17 ng/mL and 35 ng/mL
Dose 0.2 mg/kg, male, 720 min, individual animals 1A-1D
  Anatabine Concentration in rat plasma: <LOQ and 5 ng/mL and 12 ng/mL
Dose 0.2 mg/kg, male, […], individual animals 1A-1D
  Anatabine Concentration in rat plasma: <LOQ
Dose 2 mg/kg, female, 30 min, individual animals 4A-4D
  Anatabine Concentration in rat plasma: 78 ng/mL and 218 ng/mL and 98 ng/mL
Dose 2 mg/kg, female, 60 min, individual animals 4A-4D
  Anatabine Concentration in rat plasma: 81 ng/mL and 95 ng/mL and 165 ng/mL
Dose 2 mg/kg, female, 235 min, individual animals 4A-4D
  Anatabine Concentration in rat plasma: 75 ng/mL and 36 ng/mL and 23 ng/mL and 72 ng/mL
